Read-outs that look alike come from different tables or passages of the source.
Key:
[1] = tested on: oedème généralisé à l'ovalbumine; experiment: Ovalbumin-induced generalised oedema; format: in vivo; details: po, rat, 100 mg/kg per os 1 h before and together with ovalbumin
Method: Une injection intrapéritonéale simultanée de 1 ml d'ovalbumine et de 0,5 ml d'une solution aqueuse de bleu Evans à 1 % est effectuée sur le rat. D'autre part, on administre per os aux animaux du lot traité 100 mg/kg du dérivé à tester 1 heure avant et en même temps que l'ovalbumine. L'intensité du phénomène ainsi provoqué est notée par un chiffre allant de 1 à 5 suivant la progression du syndrome inflammatoire. On détermine ainsi la moyenne de l'intensité oedémateuse et le pourcentage de diminution de la réaction oedémateuse par rapport au témoin, en fonction du temps.
Les pourcentages d'activité anti-inflammatoire obtenus à la 2ème heure et 3ème heure après l'injection d'ovalbumine sont consignés dans le Tableau III suivant.

[2] = tested on: agrégation plaquettaire à l'A.D.P.; experiment: ADP-induced platelet aggregation in plasma of orally treated rats (ex vivo); parameters: species or system rats de souche Wistar; details: Rattus norvegicus, 100 mg/kg oral, 3 hours after treatment, versus control, 10 µM A.D.P., read-out: Pourcentage d'inhibition A.D.P.
Method: (§1) Chez des rats de souche Wistar, on effectue un prélèvement sanguin dans la veine jugulaire. A partir de ce sang citraté et après centrifugation, on reconstitue un plasma contenant 600 000 ± 20 000 plaquettes par mm^3, qui servira dans toutes les mesures d'agrégation.
(§2) On place 0,4 ml de plasma dans un tube siliconé pourvu d'une barre aimantée elle-même siliconée. Le tube est introduit dans un agrégomètre couplé à un appareil permettant d'enregistrer les variations de densité optique. Lorsque la transmission de la lumière a atteint une valeur stable, on introduit dans le tube 0,5 ml d'une solution contenant 10 µM d'A.D.P. (Adénosine-Di Phosphate).
(§3) L'agrégation des plaquettes provoque alors une augmentation de la transmission lumineuse suivie d'une diminution consécutive à la phase de désagrégation.
(§4) La variation maximale de densité optique ainsi déterminée caractérise l'intensité de l'agrégation.
(§5) Différents lots de 20 rats sont uiilisés, chaque lot recevant un dérivé à tester par la vcie orale, à la dose de 100 mg/kg de poids corporel. Les résultats obtenus au cours de ces 2 essais sont rapportés dans le Tableau I suivant qui indique le pourcentage d'inhibition de l'agrégation plaquettaire obtenu, par rapport au témoin, 3 heures après le traitement par le médicament de l'invention, dans le test de l'A.D.P. et au collagène.

[3] = tested on: oedème localisé provoqué par la carragénine; experiment: Carrageenan-induced localised paw oedema; format: in vivo; details: rat, 100 mg/kg oral (1 h before, at injection, 1 h and 2.5 h after)
Method: Une solution de carragénine (0,1 ml) à 1 % est injectée dans les fléchisseurs métatarsiens de la patte postérieure droite du rat au temps O. Les animaux du lot traité reçoivent en outre, par la voie orale, 100 mg par kg du dérivé à tester respectivement 1 heure avant, en même temps que l'injection de l'agent phlogogène, puis 1 heure et 2 heures et demi après. Les mesures qui sont effectuées à l'aide du micromètre de ROCH aux temps 0, 1 heure, 2 heures, 3 heures et 5 heures après l'administration de la carragénine permettent de déterminer, en fonction du temps, le pourcentage d'activité anti-inflammatoire par comparaison avec le lot témoin.

[4] = tested on: agrégation plaquettaire au collagène; experiment: Collagen-induced platelet aggregation in plasma of orally treated rats (ex vivo); parameters: species or system rats de souche Wistar; details: Rattus norvegicus, 100 mg/kg oral, 3 hours after treatment, versus control, collagen (bovine tendon extract), read-out: Pourcentage d'inhibition Collagène
Method: as §1, §2, §3, §4
La solution d'A.D.P. est remplacée par une solution de collagène (extrait de tendons bovins).
as §5

[5] = 2 h after ovalbumin injection, read-out: Pourcentage d'activité anti-inflammatoire 2ème heure
[6] = 3 h after ovalbumin injection, read-out: Pourcentage d'activité anti-inflammatoire 3ème heure
[7] = 1 h after carrageenan, read-out: pourcentage d'activité anti-inflammatoire Ière heure
[8] = 2 h after carrageenan, read-out: pourcentage d'activité anti-inflammatoire 2ème heure
[9] = 3 h after carrageenan, read-out: pourcentage d'activité anti-inflammatoire 3ème heure
[10] = 5 h after carrageenan, read-out: pourcentage d'activité anti-inflammatoire 5ème heure

Row | SMILES | inhibition in vivo at 100 mg/kg [1, 5] | inhibition in vivo at 100 mg/kg [1, 6] | inhibition at 100 mg/kg [2] | inhibition in vivo at 100 mg/kg [3, 7] | inhibition in vivo at 100 mg/kg [3, 8] | inhibition in vivo at 100 mg/kg [3, 9] | inhibition in vivo at 100 mg/kg [3, 10] | inhibition at 100 mg/kg [4]
1 | O=c1[nH]c(-c2ccccc2)cc2sccc12 [dérivé 1, Phényl-6 thiéno(3,2-c)pyridone-4] | 45% | 52% | 62% | 35% | 39% | 45% | 49% | 91.4%
2 | O=c1[nH]c(-c2ccc(F)cc2)cc2sccc12 [dérivé 2, p-fluorophényl-6 thiéno(3,2-c)pyridone-4] | 48% | 54% | 60.5% | 37% | 41% | 46% | 50% | 91.7%
3 | O=c1[nH]c(-c2ccccc2Cl)cc2sccc12 [dérivé 3, o-chlorophényl-6 thiéno(3,2-c)pyridone-4] | 48% | 55% | 58.8% | 37% | 40% | 45% | 48% | 92%
4 | O=c1[nH]c(-c2ccc(Cl)cc2)cc2sccc12 [dérivé 4, p-chlorophényl-6 thiéno(3,2-c)pyridone-4] | 47% | 53% | 61.2% | 41% | 44% | 48% | 52% | 90.5%
5 | Cc1ccc(-c2cc3sccc3c(=O)[nH]2)cc1 [dérivé 5, p-tolyl-6 thiéno(3,2-c)pyridone-4] | 50% | 55% | 62.6% | 38% | 41% | 46% | 51% | 91.4%
6 | COc1ccc(-c2cc3sccc3c(=O)[nH]2)cc1 [dérivé 6, p-méthoxyphényl-6 thiéno(3,2-c)pyridone-4] | 52% | 58% | 62.2% | 40% | 43% | 49% | 52% | 91.7%
7 | COc1ccc(-c2cc3sccc3c(=O)[nH]2)cc1OC [dérivé 7, (diméthoxy-3,4 phényl)-6 thiéno(3,2-c)pyrido-ne-4] | 48% | 55% | 61.7% | 40% | 44% | 48% | 51% | 90.6%
8 | COc1cc(-c2cc3sccc3c(=O)[nH]2)cc(OC)c1OC [dérivé 8, (triméthoxy-3,4,5 phényl)-6 thiéno(3,2-c)py-ridone-4] | 46% | 53% | 60.4% | 36% | 39% | 45% | 59% | 92.2%
9 | O=c1[nH]c(-c2ccccc2[N+](=O)[O-])cc2sccc12 [dérivé 9, o-nitrophényl-6 thiéno(3,2-c)pyridone-4] | 46% | 52% | 59.1% | 38% | 41% | 46% | 50% | 90.8%
10 | O=c1[nH]c(-c2ccc([N+](=O)[O-])cc2)cc2sccc12 [dérivé 10, p-nitrophényl-6 thiéno(3,2-c)pyridone-4] | 49% | 55% | 60.4% | 41% | 45% | 51% | 53% | 90.2%
11 | O=c1[nH]c(-c2cccc(C(F)(F)F)c2)cc2sccc12 [dérivé 11, m-trifluorométhylphényl-6 thiéno(3,2-c)pyri-done-4] | 51% | 57% | 60.1% | 40% | 44% | 49% | 52% | 90.7%
12 | O=c1[nH]c(-c2ccccc2)cc2sc(Cl)cc12 [dérivé 12, Chloro-2 phényl-6 thiéno(3,2-c)pyridone-4] | 45% | 52% | 60.6% | 36% | 40% | 46% | 50% | 91.4%
13 | Cc1cc2c(=O)[nH]c(-c3ccccc3)cc2s1 [dérivé 13, Méthyl-2 phényl-6 thiéno(3,2-c)pyridone-4] | 46% | 53% | 61.5% | 38% | 42% | 47% | 50% | 90.5%
14 | O=c1[nH]c(-c2cccnc2)cc2sccc12 [dérivé 14, (Pyridyl-3)-6 thiéno(3,2-c)pyridone-4] | 48% | 54% | 60.8% | 38% | 41% | 47% | 50% | 91.2%
15 | O=c1[nH]c(-c2ccccc2)cc2ccsc12 [dérivé 15, Phényl-5 thiéno(2,3-c)pyridone-7] | 47% | 53% | 62.5% | 39% | 43% | 48% | 51% | 90.8%
16 | O=c1[nH]c(-c2ccccc2Cl)cc2ccsc12 [dérivé 16, o-chlorophényl-5 thiéno(2,3-c)pyridone-7] | 46% | 54% | 60.1% | 37% | 41% | 47% | 50% | 90.2%
17 | O=c1[nH]c(-c2ccccc2)cc2occc12 [dérivé 17, Phényl-6 furo(3,2-c)pyridone-4] | 45% | 51% | 59.8% | 41% | 44% | 49% | 51% | 90.4%

— patent EP0006772A1, “Thieno and furopyridone derivatives, process for their preparation and medicinal preparations containing them” (OMNIUM FINANCIER AQUITAINE POUR L'HYGIENE ET LA SANTE - …, priority 1978, dated 1980)
